Measured values from patent publication US7473711B2, “Androgen modulators” (Pfizer Inc., priority 2004, dated 2009).
Numbering of substitutions follows the chain as printed. Read-outs that look alike come from different tables or passages of the source.

Key:
spinal BMD = conditions: after 7 years of treatment; cited from earlier work
[1] = molecular target: T1, hAR (human androgen receptor) (Homo sapiens, UniProt P10275); assay: Competitive binding analysis on hAR extracts with 3H-DHT tracer
T1 construct: made in house; host or cells: baculovirus/Sf9 insect cells (extract)
T1 sequence (P10275 1-920): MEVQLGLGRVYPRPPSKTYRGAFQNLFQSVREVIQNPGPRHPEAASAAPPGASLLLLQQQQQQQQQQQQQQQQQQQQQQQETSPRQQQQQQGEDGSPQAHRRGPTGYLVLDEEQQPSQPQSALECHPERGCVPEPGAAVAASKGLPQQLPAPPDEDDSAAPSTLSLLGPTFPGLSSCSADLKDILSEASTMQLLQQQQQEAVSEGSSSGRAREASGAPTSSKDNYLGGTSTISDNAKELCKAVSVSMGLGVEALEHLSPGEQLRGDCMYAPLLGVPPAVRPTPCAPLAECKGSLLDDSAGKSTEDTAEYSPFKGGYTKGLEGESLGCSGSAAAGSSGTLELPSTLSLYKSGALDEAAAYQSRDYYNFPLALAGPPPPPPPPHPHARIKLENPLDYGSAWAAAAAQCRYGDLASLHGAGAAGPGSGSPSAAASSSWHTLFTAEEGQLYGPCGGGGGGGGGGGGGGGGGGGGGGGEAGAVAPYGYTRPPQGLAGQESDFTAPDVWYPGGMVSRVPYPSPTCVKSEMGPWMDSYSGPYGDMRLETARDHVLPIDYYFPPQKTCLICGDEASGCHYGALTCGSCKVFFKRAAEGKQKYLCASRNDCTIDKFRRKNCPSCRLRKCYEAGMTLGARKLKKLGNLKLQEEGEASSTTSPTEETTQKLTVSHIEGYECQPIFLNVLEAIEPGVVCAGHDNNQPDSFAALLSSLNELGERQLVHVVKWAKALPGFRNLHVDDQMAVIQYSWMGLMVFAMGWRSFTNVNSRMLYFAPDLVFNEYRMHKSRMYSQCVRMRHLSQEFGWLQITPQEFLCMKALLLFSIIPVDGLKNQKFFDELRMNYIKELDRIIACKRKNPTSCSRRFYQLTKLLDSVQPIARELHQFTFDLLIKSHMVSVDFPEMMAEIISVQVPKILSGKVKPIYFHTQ
Experimental: The compounds of Formula I have affinity for the androgen receptor. […] The description below describes how the assay was carried out.
Competitive binding analysis was performed on baculovirus/Sf9 generated hAR extracts in the presence or absence of different concentrations of test agent and a fixed concentration of ^3H-dihydrotestosterone (^3H-DHT) as tracer. This binding assay method is a modification of a protocol previously described (Liao S., et. al. J. Steroid Biochem. 20:11-17 1984). Briefly, progressively decreasing concentrations of compounds are incubated in the presence of hAR extract (Chang et al. P.N.A.S. Vol. 89, pp. […], 1992), hydroxylapatite, and 1 nM ^3H-DHT for one hour at 4° C. Subsequently, the binding reactions are washed three times to completely remove excess unbound ^3H-DHT. hAR bound ^3H-DHT levels are determined in the presence of compounds (i.e. competitive binding) and compared to levels bound when no competitor is present (i.e. maximum binding). Compound binding affinity to the hAR is expressed as the concentration of compound at which one half of the maximum binding is inhibited. Table II below provides the results that were obtained for selected compounds (reported data is the mean of multiple tests as shown below)

[2] = molecular target: T2, androgen receptor in MDA-MB453-MMTV clone 54-19 cells (Homo sapiens, UniProt P10275); assay: AR antagonist cell assay (MMTV-luciferase reporter, 100 pM DHT); type: cell-based
T2 sequence (P10275 1-920 Q868H): T1 sequence (P10275 1-920) with Q868H
Experimental: The compounds ability to antagonize the effects of androgen on the androgen receptor were determined in a whole cell assay as described immediately below.
Experimental Procedure for AR Antagonist Cell Assay
Cell line: MDA-MB453-MMTV clone 54-19. This cell line is a stable transfected cell line with MDA-MB453 cell background (a human breast tumor cell line expressing androgen receptor). A MMTV minimal promoter containing ARE was first cloned in front of a firefly luciferase reporter gene. Then the cascade was cloned into transfection vector pUV120puro. Electroporation method was used for transfecting MDA-MB-453 cell. Puromycin resistant stable cell line was selected. Cell Culture Media and Reagents:
Culture medium: DMEM (high glucose, Gibco cat #: 11960-044), 10% FBS, and 1% L-glutamine
Plating medium: DMEM (phenol red free), 10% charcoal treated HyClone serum, 1% L-glutamine
Assay medium: DMEM (phenol red free), 1% charcoal treated HyClone serum, 1% L-glutamine, and 1% penicillin/streptomycin
3X luciferase buffer: 2% beta-mercaptoethanol, 0.6% ATP, 0.0135% luciferine in cell lysis buffer
• 1. Cells are maintained in culture medium, splitting cells when they reach 80-90% confluence • 2. To test compounds, 10,000 cells/well are plated to opaque 96 cell culture plate in 100 ul/well plating medium, culture for overnight at 37° C. in cell culture incubator • 3. Carefully remove plating medium, then add 80 ul/well of pre-warmed assay medium, add 10 ul/well testing compound (final concentration at) 1000 nM, 200 nM, 40 nM, 8 nM, 1.6 nM, and 0.32 nM), incubate at 37° C. for 30 minutes • 4. Add 10 ul/well freshly prepared DHT (final concentration at 100 pM) to each well, incubate at 37° C. for 17 hr (overnight) • 5. Add 50 ul/well 3X luciferase buffer, incubate at room temperature for 5 minutes, then count on Luminometer
The fold induction over background by 100 pM DHT in the absence of testing compounds is standardized as 100% and experimental result is expressed as percentage of inhibition by testing compounds.
The results are reported as the mean of multiple tests as described below (the numbers of tests are indicated in the footnote). N.D. denotes that the compound was not tested.

[3] = read-out: AR Cell IC50; MDA-MB453-MMTV clone 54-19, inhibition of 100 pM DHT induced luciferase, 17 hr; mean of multiple tests
[4] = MDA-MB453-MMTV clone 54-19, inhibition of 100 pM DHT induced luciferase, 17 hr; mean of multiple tests; read-out: AR Cell IC50
[5] = baculovirus/Sf9 hAR extract, 1 nM 3H-DHT, one hour at 4° C, mean of multiple tests, read-out: AR Binding IC50

| SMILES | increase in spinal BMD (spinal BMD) [%] | IC50 [1] [nM] | IC50 [2, 3] [nM] | IC50 [2, 4] [nM] | IC50 [1, 5] [nM] |
| --- | --- | --- | --- | --- | --- |
| NCCCC(O)(P(=O)(O)O)P(=O)(O)O [alendronate] | ≤ 11 | – | – | – | – |
| C[C@@H](Oc1ccc(C#N)c(C(F)(F)F)c1)[C@@H](C)Oc1ccc(C#N)c(C(F)(F)F)c1 [Example 2, 4,4′-[(2R,3R)-Butane-2,3-diylbis(oxy)]bis[2-(trifluoromethyl)benzonitrile]] | – | 34 | 67 | – | – |
| C[C@@H](CCOc1ccc(C#N)c(C(F)(F)F)c1)Oc1ccc(C#N)c(C(F)(F)F)c1 [Example 15, 4-({(3S)-3-[4-Cyano-3-(trifluoromethyl)phenoxy]butyl}oxy)-2-(trifluoromethyl)benzonitrile] | – | 49 | – | 257 | – |
| CCCC(COc1ccc(C#N)c(C(F)(F)F)c1)Oc1ccc(C#N)c(C(F)(F)F)c1 (stereo not drawn) [Example 4, 4,4′-[Pentane-1,2-diylbis(oxy)]bis[2-(trifluoromethyl)benzonitrile]] | – | – | – | > 1000 | 630 |
| N#Cc1ccc(OCCCOc2ccc(C#N)c(C(F)(F)F)c2)cc1C(F)(F)F [Example 11, 4,4′-[Propane-1,3-diylbis(oxy)]bis[2-(trifluoromethyl)benzonitrile]] | – | – | – | > 1000 | 165 |
| CC(CCC(C)Oc1ccc(C#N)c(C(F)(F)F)c1)Oc1ccc(C#N)c(C(F)(F)F)c1 (stereo not drawn) [Example 22, 4,4′-[Hexane-2,5-diylbis(oxy)]bis[2-(trifluoromethyl)benzonitrile]] | – | – | – | 322 | 293 |
| C[C@H](Oc1ccc(C#N)c(C(F)(F)F)c1)[C@H](C)Oc1ccc(C#N)c(C(F)(F)F)c1 [Example 1, 4,4′-[(2S,3S)-Butane-2,3-diylbis(oxy)]bis[2-(trifluoromethyl)benzonitrile]] | – | – | – | 531 | 191 |
| COCC(COc1ccc(C#N)c(C(F)(F)F)c1)Oc1ccc(C#N)c(C(F)(F)F)c1 (stereo not drawn) [Example 5, 4,4′-[(3-Methoxypropane-1,2-diyl)bis(oxy)]bis[2-(trifluoromethyl)benzonitrile]] | – | 56 | – | 187 | – |
| COC[C@H](COc1ccccc1)Oc1ccc(C#N)c(C(F)(F)F)c1 [Example 30, (1R)-4-(1-Methoxymethyl-2-phenoxy-ethoxy)-2-trifluoromethyl-benzonitrile] | – | 30 | 40 | – | – |
| CCCC(CCCOc1ccc(C#N)c(C(F)(F)F)c1)Oc1ccc(C#N)c(C(F)(F)F)c1 (stereo not drawn) [Example 21, 4,4′-[Heptane-1,4-diylbis(oxy)]bis[2-(trifluoromethyl)benzonitrile]] | – | – | – | > 1000 | 233 |
| CC(C)NCC(COc1ccc(C#N)c(C(F)(F)F)c1)Oc1ccc(C#N)c(C(F)(F)F)c1 (stereo not drawn) [Example 7] | – | – | – | > 1000 | 319 |
